From ChEMBL document CHEMBL5365466, “Discovery of Triazolyl Derivatives of Cucurbitacin B Targeting IGF2BP1 against Non-Small Cell Lung Cancer” (J Med Chem, 2023)
Activity calls are given as the source filed them. The rule behind the calls is not given here.

Assays:
A549 [1] = experiment: Induction of cell cycle arrest in human A549 cells assessed as accumulation of cells at G2 phase at 0.1 uM incubated for 24 hrs by PI staining based flow cytometric analysis (reference value: 9.26 %); format: functional
A549 [2] = experiment: Induction of cell cycle arrest in human A549 cells assessed as accumulation of cells at S phase at 0.1 uM incubated for 24 hrs by PI staining based flow cytometric analysis (reference value: 23 %); format: functional
A549 [3] = experiment: Induction of cell cycle arrest in human A549 cells assessed as accumulation of cells at G1 phase at 0.1 uM incubated for 24 hrs by PI staining based flow cytometric analysis (reference value: 65.6 %); format: functional
HCT-116 = experiment: Antiproliferative activity against human HCT-116 cells assessed as cell growth inhibition at 0.1 uM incubated for 72 hrs by SRB assay; format: functional
[4] = Antiproliferative activity against human L02 cells assessed as cell growth inhibition at 1 uM incubated for 72 hrs by SRB assay; format: toxicity, cell-based
[5] = Antiproliferative activity against human L02 cells assessed as cell growth inhibition at 0.1 uM incubated for 72 hrs by SRB assay; format: toxicity, cell-based
[6] = Antiproliferative activity against human L02 cells assessed as cell growth inhibition incubated for 72 hrs by SRB assay; format: toxicity, cell-based
MDA-MB-231 = experiment: Antiproliferative activity against human MDA-MB-231 cells assessed as cell growth inhibition incubated for 72 hrs by SRB assay; format: functional, cell-based; conditions: MDA-MB-231, 72 h
MCF7 = experiment: Antiproliferative activity against human MCF7 cells assessed as cell growth inhibition incubated for 72 hrs by SRB assay; format: functional, cell-based; conditions: MCF7, 72 h
SK-OV-3 = experiment: Antiproliferative activity against human SK-OV-3 cells assessed as cell growth inhibition incubated for 72 hrs by SRB assay; format: functional, cell-based; conditions: SK-OV-3, 72 h
HepG2 = experiment: Antiproliferative activity against human HepG2 cells assessed as cell growth inhibition incubated for 72 hrs by SRB assay; format: functional, cell-based; conditions: HepG2, 72 h
BXPC-3 = experiment: Antiproliferative activity against human BXPC-3 cells assessed as cell growth inhibition incubated for 72 hrs by SRB assay; format: functional, cell-based; conditions: BXPC-3, 72 h
PANC-1 = experiment: Antiproliferative activity against human PANC-1 cells assessed as cell growth inhibition incubated for 72 hrs by SRB assay; format: functional, cell-based; conditions: PANC-1, 72 h
[7] = Selectivity index, ratio of IC50 for antiproliferative activity against human L02 cells to IC50 for antiproliferative activity against human A549 cells; format: toxicity, cell-based; conditions: L02 cells versus A549 cells, read-out: Ratio IC50
[8] = Selectivity index, ratio of IC50 for antiproliferative activity against human L02 cells to IC50 for antiproliferative activity against human MDA-MB-231 cells; format: toxicity, cell-based; conditions: L02 cells versus MDA-MB-231 cells, read-out: Ratio IC50
[9] = Selectivity index, ratio of IC50 for antiproliferative activity against human L02 cells to IC50 for antiproliferative activity against human MCF7 cells; format: toxicity, cell-based; conditions: L02 cells versus MCF7 cells, read-out: Ratio IC50
[10] = Selectivity index, ratio of IC50 for antiproliferative activity against human L02 cells to IC50 for antiproliferative activity against human SK-OV-3 cells
[11] = Selectivity index, ratio of IC50 for antiproliferative activity against human L02 cells to IC50 for antiproliferative activity against human BXPC-3 cells; format: toxicity, cell-based; conditions: L02 cells versus BXPC-3 cells, read-out: Ratio IC50
[12] = Selectivity index, ratio of IC50 for antiproliferative activity against human L02 cells to IC50 for antiproliferative activity against human PANC-1 cells
[13] = Selectivity index, ratio of IC50 for antiproliferative activity against human L02 cells to IC50 for antiproliferative activity against human CFPAC-1 cells
A549 [14] = experiment: Induction of cell cycle arrest in human A549 cells assessed as accumulation of cells at G1 phase at 0.2 uM incubated for 24 hrs by PI staining based flow cytometric analysis (reference value: 65.6 %); format: functional
A549 [15] = experiment: Induction of cell cycle arrest in human A549 cells assessed as accumulation of cells at G1 phase at 0.5 uM incubated for 24 hrs by PI staining based flow cytometric analysis (reference value: 65.6 %); format: functional
A549 [16] = experiment: Induction of cell cycle arrest in human A549 cells assessed as accumulation of cells at S phase at 0.5 uM incubated for 24 hrs by PI staining based flow cytometric analysis (reference value: 23 %); format: functional
A549 [17] = experiment: Induction of autophagy in human A549 cells assessed as upregulation of Beclin-1 expression at 0.1 to 0.5 uM incubated for 48 hrs by Western blotting analysis; format: functional, cell-based; conditions: dose 0.1-0.5 µM
A549 [18] = experiment: Induction of autophagy in human A549 cells assessed as upregulation of p62 protein expression at 0.1 to 0.5 uM incubated for 48 hrs by Western blotting analysis; format: functional, cell-based; conditions: dose 0.1-0.5 µM
[19] = biological target: T1, Insulin-like growth factor 2 mRNA-binding protein 1 (Homo sapiens, UniProt Q9NZI8); experiment: Binding affinity to IGF2BP1 in human A549 cells assessed as protein stabilization at 1 uM at 46 degreeC incubated for 2 hrs by CETSA; format: cell-based
T1 sequence (Q9NZI8 whole entry): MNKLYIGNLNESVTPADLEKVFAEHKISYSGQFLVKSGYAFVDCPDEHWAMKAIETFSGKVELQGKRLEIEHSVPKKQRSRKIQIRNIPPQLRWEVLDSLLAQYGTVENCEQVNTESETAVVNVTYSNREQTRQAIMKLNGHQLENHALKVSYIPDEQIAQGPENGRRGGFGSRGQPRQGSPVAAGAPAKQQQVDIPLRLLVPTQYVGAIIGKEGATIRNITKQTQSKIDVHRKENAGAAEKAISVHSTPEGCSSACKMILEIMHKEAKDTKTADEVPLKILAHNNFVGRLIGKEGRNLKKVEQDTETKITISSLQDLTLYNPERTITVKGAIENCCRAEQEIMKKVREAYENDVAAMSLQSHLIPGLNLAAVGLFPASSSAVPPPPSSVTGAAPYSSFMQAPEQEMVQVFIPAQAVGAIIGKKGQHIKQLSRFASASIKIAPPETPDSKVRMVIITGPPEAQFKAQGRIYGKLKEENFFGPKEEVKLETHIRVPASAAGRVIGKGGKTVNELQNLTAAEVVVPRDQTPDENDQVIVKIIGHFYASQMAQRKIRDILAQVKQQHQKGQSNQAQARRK

[20] = biological target: T1, Insulin-like growth factor 2 mRNA-binding protein 1; experiment: Binding affinity to IGF2BP1 in human A549 cells assessed as protein stabilization at 1 uM at 55 degreeC incubated for 2 hrs by CETSA; format: cell-based
A549 [21] = experiment: Induction of apoptosis in human A549 cells assessed as downregulation of CDK4 expression incubated for 48 hrs by Western blotting analysis; format: functional, cell-based
A549 [22] = experiment: Induction of apoptosis in human A549 cells assessed as downregulation of Cyclin D1 expression incubated for 48 hrs by Western blotting analysis; format: functional, cell-based
A549 [23] = experiment: Antiproliferative activity against wild type human A549 cells assessed as cell growth inhibition incubated for 72 hrs by SRB assay; format: functional, cell-based; conditions: A549, 72 h
[24] = Acute toxicity in C57BL/6J mouse assessed as death at 0.75 mg/kg,ip measured after 14 days; format: organism-based; conditions: in vivo, 336 h, time 14 day
[25] = Acute toxicity in C57BL/6J mouse assessed as change in body weight at 0.75 mg/kg,ip measured after 14 days; format: organism-based; conditions: in vivo, 336 h, time 14 day
A549 [26] = experiment: Antitumor activity against human A549 cells xenografted in BALB/c mouse assessed as decrease in tumor weight at 0.5 mg/kg,ip administrated for 21 days; format: functional, organism-based; conditions: time 21.0 day
[27] = Acute toxicity in BALB/c mouse xenografted with human A549 cells assessed as change in body weight at 0.5 mg/kg,ip administrated for 21 days; format: organism-based; conditions: in vivo, 504 h, time 21 day
A549 [28] = experiment: Antitumor activity against human A549 cells xenografted in BALB/c mouse assessed as increase in nuclear pyknosis at 0.5 mg/kg,ip administrated for 21 days by hematoxylin and eosin staining based microscopic analysis; format: functional, organism-based; conditions: time 21.0 day
A549 [29] = experiment: Antitumor activity against human A549 cells xenografted in BALB/c mouse assessed as vacuole formation at 0.5 mg/kg,ip administrated for 21 days by hematoxylin and eosin staining based microscopic analysis; format: functional, organism-based; conditions: time 21.0 day
A549 [30] = experiment: Antitumor activity against human A549 cells xenografted in BALB/c mouse assessed as increase in apoptosis at 0.5 mg/kg,ip administrated for 21 days by TUNEL staining based analysis; format: functional, organism-based; conditions: time 21.0 day

Molecule CC(=O)OC(C)(C)/C=C/C(=O)[C@](C)(O)[C@H]1[C@H](O)C[C@@]2(C)[C@@H]3CC=C4[C@@H](C[C@H](OC(=O)Cn5ncn(-c6ccc(F)cc6)c5=O)C(=O)C4(C)C)[C@]3(C)C(=O)C[C@]12C has an Activity (A549 [1]) of 10.5%, an Activity (A549 [2]) of 31.1% and an Activity (A549 [3]) of 57.7%. It also gave an inhibition at 0.1 µM (HCT-116) of 73.1%, an inhibition at 72 h, 1 µM [4] of 68.9% and an inhibition at 72 h, 0.1 µM [5] of 50.5%. The IC50 at 72 h [6] was 100 nM, the IC50 (MDA-MB-231) was 49 nM and the IC50 (MCF7) was 56 nM. The IC50 (SK-OV-3) was 54 nM, the IC50 (HepG2) was 80 nM and the IC50 (BXPC-3) was 18 nM. For the same molecule, the IC50 (PANC-1) was 88 nM, the selectivity ratio [7] was 11.1 and the selectivity ratio [8] was 2.04. For the same molecule, the selectivity ratio [9] was 1.79, the “Ratio IC50” value [10] was 1.85 and the selectivity ratio [11] was 5.56. The “Ratio IC50” value [12] was 1.14, the “Ratio IC50” value [13] was 2.7 and the Activity (A549 [14]) was 63.6%. The Activity (A549 [15]) was 51.3%, the Activity (A549 [16]) was 8.96% and the Activity (A549 [17]) was “inactive”. The Activity (A549 [18]) was “Dose-Dependent Effect”, the Activity [19] was “Active” and the Activity [20] was “Active”. The Activity (A549 [21]) was “Dose-Dependent Effect”, the Activity (A549 [22]) was “Dose-Dependent Effect” and the IC50 (A549 [23]) was 5 nM. The Activity [24] was “Non-Toxic”, the Activity [25] was “Toxic” and the Activity (A549 [26]) was “Active”. The Activity [27] was “Non-Toxic”, the Activity (A549 [28]) was “Active” and the Activity (A549 [29]) was “Active”. For the same molecule, the Activity (A549 [30]) was “Active”.
